Test results: US20240277800A1, “PHARMACEUTICAL COMPOSITION COMPRISING MACROCOSINE COMPOUND AND METHOD FOR PREPARING MACROCOSINE COMPOUND” (priority 2021, published 2024)
≈ marks a conversion by molar mass, not a printed value. Like-named read-outs stand apart in the source and are kept apart here.

System: M. tuberculosis
Test: Antibacterial activity against tuberculosis bacteria, resazurin (REMA) MIC50
Type: cell-based
Settings: Mycobacterium tuberculosis

## C/C=C(\NC(=O)c1csc(-c2csc(-c3ccc4c(n3)-c3csc(n3)[C@H]([C@@H](C)O)NC(=O)c3csc(n3)[C@H](C(C)C)NC(=O)c3csc(n3)/C(=C/C)NC(=O)[C@H]([C@@H](C)O)NC(=O)c3csc-4n3)n2)n1)C(=O)NCC(C)=O [Micrococcin P2]
Extensively Drug Resistant #3 (XDR-3), read-out: MIC50
  MIC50: 0.375 µM (≈ 0.428 µg/mL)
Extensively Drug Resistant #4 (XDR-4), read-out: MIC50
  MIC50: 0.094 µM (≈ 0.107 µg/mL)
Extensively Drug Resistant #5 (XDR-5), read-out: MIC50
  MIC50: 0.114 µM (≈ 0.13 µg/mL)
Extensively Drug Resistant #6 (XDR-6), read-out: MIC50
  MIC50: 0.722 µM (≈ 0.825 µg/mL)
Extensively Drug Resistant #10 (XDR-7)
  MIC50: 0.209 µM (≈ 0.239 µg/mL)
Multi Drug Resistant isolate #3 (MDR-3), read-out: MIC50
  MIC50: 0.073 µM (≈ 0.0834 µg/mL)
Multi Drug Resistant isolate #4 (MDR-4), read-out: MIC50
  MIC50: 0.169 µM (≈ 0.193 µg/mL)
Multi Drug Resistant isolate #11 (MDR-11), read-out: MIC50
  MIC50: 0.051 µM (≈ 0.0583 µg/mL)
Multi Drug Resistant isolate #20 (MDR-20), read-out: MIC50
  MIC50: 2.3 µM (≈ 2.63 µg/mL)
Multi Drug Resistant isolate #21 (MDR-21), read-out: MIC50
  MIC50: 0.044 µM (≈ 0.0503 µg/mL)
Multi Drug Resistant isolate #30 (MDR-30), read-out: MIC50
  MIC50: 0.304 µM (≈ 0.347 µg/mL)
